# Measured values taken from paper PMC10165273, “Itch receptor MRGPRX4 interacts with the receptor activity–modifying proteins” (The Journal of Biological Chemistry, 2023).
# pEC50: −log10 of the molar value. Values joined by “and” are separate entries in the source; they are usually repeats but may differ in a detail not shown here. Equal entries are not always repeated. Where two headings read alike, the source gives them in different places.
# Tests used:
# MRGPRX4 + RAMP2 = molecular target: T1, MRGPRX4 + RAMP2 (Homo sapiens, UniProt Q96LA9); assay: BRET2 β-arrestin2 recruitment, MRGPRX4 with RAMP2; assay type: cell-based; settings: for BRET2 ratio, time course (Figure 5e): MRGPRX4 + RAMP2 100μM Ng, listed as Ng
# T1 construct: expressed in transfected cells; host or cells: HEK293T
# T1 sequence (Q96LA9 whole entry): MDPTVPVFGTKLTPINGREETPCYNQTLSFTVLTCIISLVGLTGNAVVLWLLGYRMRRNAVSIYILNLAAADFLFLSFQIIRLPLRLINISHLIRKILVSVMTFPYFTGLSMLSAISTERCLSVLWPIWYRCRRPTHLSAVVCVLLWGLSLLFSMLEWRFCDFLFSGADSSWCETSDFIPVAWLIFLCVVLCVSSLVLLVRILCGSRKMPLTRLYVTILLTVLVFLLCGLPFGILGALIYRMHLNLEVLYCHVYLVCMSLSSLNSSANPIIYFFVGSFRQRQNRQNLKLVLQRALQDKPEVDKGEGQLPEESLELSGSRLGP
# Method: (§1) The method for homogenous transfection of β-Arrestin and BRET^2 assay of β-Arrestin recruitment has been described previously ([51]). […] BRET^2 measurements were taken on the BioTek Synergy NEO2 microplate reader.
# To measure the time-course of β-Arrestin2 recruitment to MRGPRX4 and CALCRL, the transfection and general procedure described above was followed, with the modification that Prolume Purple was added first, followed by addition of the appropriate agonists ([51]).
# (§2) The BRET ratio for each sample was determined by calculating the ratio of the light intensity emitted by the GFP10 (515 nm) (acceptor) over the light intensity emitted by the RLuc3 (395 nm) (donor). Net BRET^2 was determined by subtracting the basal BRET^2 (β-arrestin-RLuc3 only) signal from the BRET^2 signals. All BRET values were normalized to the MRGPRX4-only condition.
# MRGPRX4 + RAMP3 = molecular target: T2, MRGPRX4 + RAMP3 (Homo sapiens, UniProt Q96LA9); assay: BRET2 β-arrestin2 recruitment, MRGPRX4 with RAMP3; assay type: cell-based
# T2 construct: expressed in transfected cells; host or cells: HEK293T
# T2 sequence (Q96LA9 whole entry): as above
# Method: as §1, §2
# MRGPRX4 [1] = tested on: MRGPRX4; parameters: method as in Cao et al. [23]; settings: ref Cao et al. [23]; read-out: Ca2+ flux EC50; cited from earlier work
# mock (βArr2) = assay: BRET2 β-arrestin2 recruitment, mock-transfected cells; assay type: cell-based, human; settings: 100µM Ng
# MRGPRX4 [2] = tested on: MRGPRX4; parameters: method as in PMID 25895059; settings: ref [10]; read-out: phosphatidylinositol hydrolysis EC50; cited from earlier work
smiles,measurement,setting,value
CC(C)[C@H]1CC[C@H](C(=O)N[C@H](Cc2ccccc2)C(=O)O)CC1 [Nateglinide],"BRET2 ratio, time course (Figure 5e)",MRGPRX4 + RAMP2; 60 seconds,0.009668 and 0.00973 and 0.009697
same,"BRET2 ratio, time course (Figure 5e)",MRGPRX4 + RAMP2; 120 seconds,0.01023 and 0.01 and 0.01054
same,"BRET2 ratio, time course (Figure 5e)",MRGPRX4 + RAMP2; 180 seconds,0.01074 and 0.009771 and 0.01057
same,"BRET2 ratio, time course (Figure 5e)",MRGPRX4 + RAMP2; 240 seconds,0.01008 and 0.0101 and 0.01015
same,"BRET2 ratio, time course (Figure 5e)",MRGPRX4 + RAMP2; 300 seconds,0.009689 and 0.009979 and 0.01017
same,"BRET2 ratio, time course (Figure 5e)",MRGPRX4 + RAMP2; 360 seconds,0.009793 and 0.009837 and 0.01091
same,"BRET2 ratio, time course (Figure 5e)",MRGPRX4 + RAMP2; 420 seconds,0.009697 and 0.01031 and 0.01076
same,"BRET2 ratio, time course (Figure 5e)",MRGPRX4 + RAMP2; 480 seconds,0.00993 and 0.009604 and 0.009499
same,"BRET2 ratio, time course (Figure 5e)",MRGPRX4 + RAMP2; 540 seconds,0.00961 and 0.009808 and 0.01044
same,"BRET2 ratio, time course (Figure 5e)",MRGPRX4 + RAMP2; 600 seconds,0.01026 and 0.01047 and 0.00952
same,"BRET2 ratio, time course (Figure 5e)",MRGPRX4 + RAMP2; 660 seconds,0.009244
same,decrease in β-arrestin2 recruitment upon nateglinide treatment,MRGPRX4 + RAMP2; RAMP2 coexpression vs MRGPRX4 alone (Fig. 5F),73%
same,normalized β-arrestin2 recruitment BRET2 signal (Figure 5f),"MRGPRX4 + RAMP3; MRGPRX4 + RAMP3, 100μM Ng, listed as Ng",0.6122 and 0.604 and 0.6466 and 0.7957
same,attenuation of β-arrestin2 recruitment upon nateglinide treatment,MRGPRX4 + RAMP3; RAMP3 coexpression vs MRGPRX4 alone (Fig. 5F),34%
same,pEC50,MRGPRX4 [1],5.33
same,β-arrestin recruitment BRET2 signal (Figure 5d),mock (βArr2),-0.01563
same,pEC50,MRGPRX4 [2],5.68
